These results are taken from US10485805B2, “Finafloxacin for use in the treatment of urinary tract infections” (MerLion Pharmaceuticals Pte. Ltd., priority 2015, dated 2019).

The test system of series [1] is fluoroquinolone-susceptible pathogens in the urine. The series can be described thus: Concentration of pathogens in the urine of patients with uncomplicated UTIs after a single oral dose. Type of series: in vivo. To be noted: for Bacteria per ml urine - hours after dose: 2 hours: 2 hours after oral dose of 300 mg finafloxacin or 250 mg ciprofloxacin; for Bacteria per ml urine - hours after dose: 2 hours / Bacteria per ml urine - hours after dose: 4 hours / Bacteria per ml urine - hours after dose: 8 hours: individual patients, uncomplicated UTI; for Bacteria per ml urine - hours after dose: 4 hours: 4 hours after oral dose of 300 mg finafloxacin or 250 mg ciprofloxacin; for Bacteria per ml urine - hours after dose: 8 hours: 8 hours after oral dose of 300 mg finafloxacin or 250 mg ciprofloxacin. The protocol: Patients with uncomplicated UTIs were treated with an oral dose of 300 mg finafloxacin or 250 mg of ciprofloxacin and the concentrations of the fluoroquinolone-susceptible pathogens in the urine were determined before and 2, 4 and 8 hours after intake of the drugs. (−bacterial titers below 10^3).

For series [2], the system named is isolate (pathogen from urine of patients with uncomplicated UTI). The series can be described thus: MIC of the patients' urine isolates. Type of series: cell-based. To be noted: ciprofloxacin MIC of each patient's isolate (patients 1-7, one line per patient).
A short description of series [3]: Solubility of finafloxacin in the presence of Tris. The series is classed as physicochemical. To be noted: compared with other buffer substances (e.g. phosphate buffer). An excerpt: (§1) However, Tris is herein used as solubility enhancing agent. […] Both effects lead to a completely unexpected result. Tris is therefore to be regarded as a specific tool to considerably enhance the solubility of finafloxacin in solutions. By preparing compositions comprising Tris it is possible to dissolve finafloxacin stably in such an amount therein that these compositions can effectively be used as parenteral compositions for the treatment of UTIs.

The next series has as its system Pseudomonas aeruginosa. The series can be described thus: Reduction of viable bacteria after 1 h exposure in broth adjusted to different pH values. The series is classed as cell-based. Conditions: 1 h of incubation, inoculum 10^6 colony forming units per ml. The procedure: (§2) An overnight inoculum of 10^6 colony forming units per ml broth adjusted to different pH values of different pathogens was exposed to finafloxacin. Bacterial growth was determined before and after 1 h of incubation.

In series [4] the test system is Stenotrophomonas maltophilia clinical isolate. The description is as above. The series is classed as cell-based. To be noted: 1 h of incubation, inoculum 10^6 colony forming units per ml. The procedure: as §2
Series [5] can be described thus: Stability of finafloxacin solutions comprising Tris. To be noted: compositions comprising Tris. The series is classed as physicochemical.
From the text: as §1

Series [6] relates to complicated UTIs or pyelonephritis. The series can be described thus: Double-blind, randomized clinical study, complicated UTIs or pyelonephritis: treatment success (combined clinical and microbiological response). To be noted: 17 days after start of treatment. The series is classed as in vivo, patients.

Values joined by “and” are separate entries in the source; they are usually repeats but may differ in a detail not shown here. Equal values may be shown once.

For the compound `O=C(O)c1cn(C2CC2)c2cc(N3CCNCC3)c(F)cc2c1=O` [Ciprofloxacin, reference compound], in series [1], the “Bacteria per ml urine - hours after dose: 2 hours” value (from here on “Bacteria per ml urine … 2 hours”) is “— (bacterial titers below 10^3) and 2.0 × 10^3 Bacteria per ml urine and 6.1 × 10^4 Bacteria per ml urine”; the “Bacteria per ml urine - hours after dose: 4 hours” value (“Bacteria per ml urine … 4 hours” below) is “— (bacterial titers below 10^3) (2×) and 2.7 × 10^3 Bacteria per ml urine”; the “Bacteria per ml urine - hours after dose: 8 hours” value is given as “— (bacterial titers below 10^3)”. Moreover, in series [1] (listed as ciprofloxacin), the “Bacteria per ml urine … 2 hours” value is “above 10^3 Bacteria per ml urine” and the “Bacteria per ml urine … 4 hours” value was “above 10^3 Bacteria per ml urine”. In series [2], the “MIC of isolate [Cipro mg/L]” value is 0.012 mg/L (3×) and 0.19 mg/L (2×) and 0.008 mg/L (2×).
`N#Cc1c(N2C[C@@H]3NCCO[C@H]3C2)c(F)cc2c(=O)c(C(=O)O)cn(C3CC3)c12` [Finafloxacin, (−)-8-cyano-1-cyclopropyl-6-fluoro-7-[(4aS,7aS)-hexahydropyrrolo[3,4-B]-1,4-oxazin-6(2H)-yl]-4-oxo-1,4-dihydroquinoline-3-carboxylic acid]: the “Bacteria per ml urine … 2 hours” value in series [1] is “— (bacterial titers below 10^3)”; in series [1] (listed as finafloxacin), “below 10^3 Bacteria per ml urine”. Besides, the “Bacteria per ml urine … 4 hours” value in series [1] is “— (bacterial titers below 10^3)”. In series [1], the “Bacteria per ml urine - hours after dose: 8 hours” value is given as “— (bacterial titers below 10^3)”. Also, the “time after intake within which pathogens are eradicated in the urine” value in series [1] (oral formulation, patients with uncomplicated UTIs) was not above 2 h. Further, in series [3], the solubility result was “high solubility”. Also, the “number of viable bacteria in the medium reduced by” value came to 98.6% with Pseudomonas aeruginosa (pH 5.2); 99.3% with Pseudomonas aeruginosa (pH 6.2); 99.9% in the series on Pseudomonas aeruginosa (pH 7.2); 87.4% in series [4] (pH 5.2); 99.8% in series [4] (pH 7.2). Also, the stability of solutions entry in series [5] is listed as “long term stability”. The “treatment success (combined clinical response and microbiological response)” value was 70.3% in series [6] (overall treatment duration 5 days (3 days intravenous 800 mg daily, then oral 800 mg daily)) and 67.6% in series [6] (overall treatment duration 10 days (3 days intravenous, then 7 days oral)).
